Results on one compound are retold here after patent US11660313B2, “Compositions and methods for application over skin” (Shiseido Company, Limited, priority 2015, dated 2023).

SMILES strings stand for the structures. Converted amounts (≈) assume the structure as drawn.

The nature of the data set: Solubility of triamcinolone acetonide in receptor fluid. The data set is classed as physicochemical. Particulars: not told, aqueous with cosolvent or surfactant or cyclodextrin; PBS at pH 7.4 with 2 wt % hydroxypropyl-beta-cyclodextrin. The protocol: Receptor fluid preparation: Based on the results of solubility studies, a receptor fluid of phosphate buffered saline (PBS) at pH 7.4 with 2 wt % hydroxypropyl-beta-cyclodextrin (HPBCD) was chosen. […] The preparation and degassing of the receptor fluid was prepared at an appropriate pH and degassing was carried out by filtering the receptor fluid through a ZapCap CR 0.2 μm membrane while pulling vacuum.

For the compound `CC1(C)O[C@@H]2C[C@H]3[C@@H]4CCC5=CC(=O)C=C[C@]5(C)[C@@]4(F)[C@@H](O)C[C@]3(C)[C@]2(C(=O)CO)O1` [triamcinolone acetonide], the solubility is ~282 µg/mL (≈ 649 µM).

Broadly, the solubility is the dissolved amount per volume that the medium holds.
